Test results: US6392049B1, “Process for preparing 2,4-dihydroxypyridine and 2,4-dihydroxy-3-nitropyridine” (Aventis Pharmaceuticals Inc., priority 1996, dated 2002)

Assays:
[1] = test system: normotensive anesthetized rat; test: Mean arterial blood pressure and heart rate in normotensive anesthetized rat; assay type: in vivo
Description: Normotensive rats are anesthetized with sodium pentobarbital (50 mg/kg, i.p.) and placed on a heated surgical table. Cannulas are inserted into the femoral artery and veined to allow the measurement of arterial pressure and to facilitate the intravenous administration of test compounds. The animals are allowed to equilibrate for 10 minutes after surgery. Mean arterial pressure is continuously measured and recorded and heart rate is monitored using the arterial pressure pulse to trigger a cardiotachometer. After baseline parameters are established and recorded, increasing doses (1, 3, 10, 30, 100, 300 and 1000 μg/kg) of the compound of Formula I to be tested are administered intravenously. Maximal changes in the cardiovascular parameters are observed after each dose of the adenosine agonist. Only one compound is administered per rat.

A1 receptor = target: T1, A1 receptor (Rattus norvegicus, UniProt P25099); test: A1 adenosine receptor binding, displacement of 3H-CHA, whole rat brain membranes; details: 3H-CHA displacement, 25° C., 60 minutes
T1 construct: using a membrane preparation of whole rat brain; from tissue; host or cells: whole rat brain membranes
T1 sequence (P25099 1-326): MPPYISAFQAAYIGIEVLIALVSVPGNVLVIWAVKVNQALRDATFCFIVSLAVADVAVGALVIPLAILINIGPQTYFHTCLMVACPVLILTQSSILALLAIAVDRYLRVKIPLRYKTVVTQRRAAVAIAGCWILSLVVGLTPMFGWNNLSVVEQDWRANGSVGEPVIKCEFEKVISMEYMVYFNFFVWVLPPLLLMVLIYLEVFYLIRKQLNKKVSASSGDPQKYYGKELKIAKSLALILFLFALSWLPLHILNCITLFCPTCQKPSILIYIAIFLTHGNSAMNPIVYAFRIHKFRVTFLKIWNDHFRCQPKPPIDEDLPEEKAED

[2] = test system: spontaneously hypertensive rat (SHR); test: Oral antihypertensive activity in conscious spontaneously hypertensive rat (SHR); assay type: in vivo; details: single oral dose 5 mg/kg, D signifies decrease, I signifies increase
Description: The oral antihypertensive activity of compounds of Formula I are examined in conscious spontaneously hypertensive rats. The rats are anesthetized with sodium phenobarbitol (50 mg/kg i.p.). A telemetry transducer is implanted into the rats abdomen via midline incision. The cannula of the transducer is inserted into the abdominal aorta to allow direct measurement of arterial pressure in the conscious SHR. The transducer is secured to the abdominal wall. After recovery from surgery (minimum of seven days), the SHR are placed on a receiver plate and the transducer/transmitter is activated. Systolic, diastolic and mean arterial pressure and heart rate are recorded for 1.5 hours in the unrestrained conscious rat to establish a stable baseline. Each rat then received a single dose of the compound of Formula I to be tested, or vehicle, and changes in arterial pressure and heart rate are monitored for 20 hours and recorded.

swine coronary arteries = test: In vitro vasorelaxation in isolated swine coronary arteries; assay type: cell-based; details: Sus scrofa, read-out: Vasorelaxation in Swine Coronary Artery/IC50 (μM)
Description: Swine coronary arteries are obtained from a local slaughter house, dissected carefully and cleaned of fat, blood and adhering tissue. Rings approximately 2-3 mm wide are cut and transferred to water-jacketed tissue baths (10 mL) filled with warm (37° C.), oxygenated (O2/CO2:95%/5%) Krebs-Henseleit buffer and mounted on L-shaped hooks between stainless steel rods and a force transducer. […] PGF2a, before being exposed to 3 μM PGF2a.

A2 receptor [3] = target: T2, A2 receptor (Rattus norvegicus, UniProt P30543); test: A2 adenosine receptor binding, displacement of 3H-CGS 21680, rat brain striatum membranes; details: 3H-CGS 21680 displacement, rat brain striatum membranes, 25° C., 90 minutes; read-out: Adenosine Receptor Binding Activity/IC50 (nM) A2
T2 construct: using membranes from rat brain striatum; from tissue; host or cells: rat brain striatum membranes

A1 and A2 receptors = details: selectivity, background section; cited from earlier work
A2 receptor [4] = details: background section; cited from earlier work

T2 sequence (P30543 whole entry): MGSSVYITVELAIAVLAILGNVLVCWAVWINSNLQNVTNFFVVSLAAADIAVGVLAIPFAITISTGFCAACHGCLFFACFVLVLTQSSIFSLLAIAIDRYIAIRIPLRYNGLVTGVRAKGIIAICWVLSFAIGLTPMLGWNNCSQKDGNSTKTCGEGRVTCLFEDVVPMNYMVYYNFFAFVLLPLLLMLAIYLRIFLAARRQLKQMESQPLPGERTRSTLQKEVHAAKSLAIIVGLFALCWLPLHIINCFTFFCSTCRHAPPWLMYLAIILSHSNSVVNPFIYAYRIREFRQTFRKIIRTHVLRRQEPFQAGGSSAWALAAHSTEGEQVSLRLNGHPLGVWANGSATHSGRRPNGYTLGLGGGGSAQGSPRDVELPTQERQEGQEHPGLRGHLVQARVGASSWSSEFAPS

Structure (SMILES) | Anesthetized Rat HR/ED25 ([1]; intravenous dose lowering heart rate by 25%) [mg/kg] | Anesthetized Rat MAP/ED25 ([1]; intravenous dose lowering mean arterial pressure by 25%) [mg/kg] | IC50 (A1 receptor) [nM] | SHR HR/% [2] | SHR MAP/% [2] | IC50 (swine coronary arteries) [µM] | IC50 (A2 receptor [3]) [nM] | melting point [°C] | A2/A1 ratio (A1 and A2 receptors) | fold less potent than NECA in affinity for the A2 receptor (A2 receptor [4]) [fold]
OC[C@H]1O[C@@H](n2cnc3c(N[C@@H]4CC=CC[C@H]4c4cccs4)ncnc32)[C@H](O)[C@@H]1O (relative stereo) [Example 4, N6-[trans-2-(thiophen-2-yl)cyclohex-4-en-yl]adenosine] | 0.019 | 0.013 | 1.66 | 20 (D) % | 28 (D) % | 0.73 | 55 | 105 to 110 |  | 
Nc1nc(Nc2ccccc2)nc2c1ncn2[C@@H]1O[C@H](CO)[C@@H](O)[C@H]1O [CV-1808] |  |  |  |  |  |  |  |  | 0.19 | 10
